ChEMBL document CHEMBL1201862, “PubChem BioAssay data set” (2004)
Calls of active or inactive are those of the source.

Key:
CHO = CHO cell viability loss, potency – luminescence, cytotoxicity control for TLR9-MyD88 binding inhibitor project, dose response (AID 588339); format: functional, cell-based, hamster; settings: Cricetulus griseus;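 note: CHO cells stably coexpressing TLR9 and MyD88 fusions from primary screen; compound exposure lasted 48 hours before viability readout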
Beta Lactamase = Beta Lactamase (Pseudomonas aeruginosa, UniProt Q932Y6); test: BLA reporter interference, concentration series – BLA reporter cells, FRET fluorescence, artefact control for TLR9-MyD88 binding inhibitor project, dose response (AID 588341); format: cell-based;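 note: cell based assay in CHO-K1 cells stably expressing beta-lactamase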
Chain of Beta Lactamase (Q932Y6 whole entry): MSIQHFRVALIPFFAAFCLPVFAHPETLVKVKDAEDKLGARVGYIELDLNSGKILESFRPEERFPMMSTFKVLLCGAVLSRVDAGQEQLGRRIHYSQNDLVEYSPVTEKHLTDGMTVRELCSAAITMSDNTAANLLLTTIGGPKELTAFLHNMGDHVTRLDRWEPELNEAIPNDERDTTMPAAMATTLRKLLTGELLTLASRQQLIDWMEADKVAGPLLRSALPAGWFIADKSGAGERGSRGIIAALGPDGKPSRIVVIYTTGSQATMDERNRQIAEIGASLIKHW

HEK293 [1] = test: membrane integrity loss in HEK cells – cell-based, fluorescence, cytotoxicity control for IDE activator project, dose response (AID 588440); format: functional; settings: Homo sapiens;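 note: cytotoxicity by LDH release measuring loss of membrane integrity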
Insulin-degrading enzyme [2] = target: T1, Insulin-degrading enzyme (Homo sapiens, UniProt P14735); test: cellular IDE activation of Abeta substrate cleavage – fluorescence polarization, HEK cells, dose response (AID 588439); format: functional, cell-based
T1 sequence (P14735 whole entry): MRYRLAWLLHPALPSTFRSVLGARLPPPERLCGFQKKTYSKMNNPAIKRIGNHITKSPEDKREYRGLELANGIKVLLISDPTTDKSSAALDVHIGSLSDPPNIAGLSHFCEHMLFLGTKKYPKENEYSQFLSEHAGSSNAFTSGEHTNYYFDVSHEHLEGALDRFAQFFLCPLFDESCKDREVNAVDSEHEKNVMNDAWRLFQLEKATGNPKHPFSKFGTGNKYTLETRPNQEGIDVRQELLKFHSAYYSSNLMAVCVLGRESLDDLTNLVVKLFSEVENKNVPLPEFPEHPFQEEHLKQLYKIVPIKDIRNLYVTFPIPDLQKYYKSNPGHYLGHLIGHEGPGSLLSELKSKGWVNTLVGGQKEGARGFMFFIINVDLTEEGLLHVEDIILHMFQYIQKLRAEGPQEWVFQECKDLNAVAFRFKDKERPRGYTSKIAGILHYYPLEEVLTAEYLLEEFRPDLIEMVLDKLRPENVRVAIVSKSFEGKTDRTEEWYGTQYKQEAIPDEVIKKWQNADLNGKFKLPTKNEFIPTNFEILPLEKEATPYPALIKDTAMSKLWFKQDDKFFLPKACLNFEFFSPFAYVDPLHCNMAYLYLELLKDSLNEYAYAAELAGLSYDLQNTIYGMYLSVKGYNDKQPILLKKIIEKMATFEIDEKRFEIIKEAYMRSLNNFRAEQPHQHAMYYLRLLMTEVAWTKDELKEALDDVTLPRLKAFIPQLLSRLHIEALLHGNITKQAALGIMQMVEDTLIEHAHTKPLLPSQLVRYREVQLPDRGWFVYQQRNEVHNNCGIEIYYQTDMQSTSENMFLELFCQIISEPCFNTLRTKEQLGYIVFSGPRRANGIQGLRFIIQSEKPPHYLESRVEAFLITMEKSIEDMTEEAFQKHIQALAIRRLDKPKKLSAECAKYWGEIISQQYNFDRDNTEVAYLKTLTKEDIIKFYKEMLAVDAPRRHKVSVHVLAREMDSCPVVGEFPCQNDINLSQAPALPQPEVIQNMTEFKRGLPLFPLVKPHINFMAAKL

Insulin-degrading enzyme [3] = target: T1, Insulin-degrading enzyme; test: recombinant IDE activation, cell-free – biochemical, fluorescence polarization, counter-screen for IDE activator project, dose response (AID 588681)
HEK293 [4] = test: optical interference in Abeta FP readout, dose response, artefact control for IDE activator project, biochemical, fluorescence polarization (AID 588442); format: functional, cell-based; settings: Homo sapiens
[5] = target: T2, Heat shock factor protein 1 (Mus musculus, UniProt P38532); test: decrease of HSF1-responsive luciferase luminescence – cell-based, NIH3T3, dose retest, confirmation (AID 2382); format: functional;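 note: NIH3T3 fibroblasts with HSF1-driven luciferase reporter stressed by proteasome inhibitor MG132; luminescence from HSF1-driven luciferase expression after 8 hours of MG132 stress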
T2 sequence (P38532 whole entry): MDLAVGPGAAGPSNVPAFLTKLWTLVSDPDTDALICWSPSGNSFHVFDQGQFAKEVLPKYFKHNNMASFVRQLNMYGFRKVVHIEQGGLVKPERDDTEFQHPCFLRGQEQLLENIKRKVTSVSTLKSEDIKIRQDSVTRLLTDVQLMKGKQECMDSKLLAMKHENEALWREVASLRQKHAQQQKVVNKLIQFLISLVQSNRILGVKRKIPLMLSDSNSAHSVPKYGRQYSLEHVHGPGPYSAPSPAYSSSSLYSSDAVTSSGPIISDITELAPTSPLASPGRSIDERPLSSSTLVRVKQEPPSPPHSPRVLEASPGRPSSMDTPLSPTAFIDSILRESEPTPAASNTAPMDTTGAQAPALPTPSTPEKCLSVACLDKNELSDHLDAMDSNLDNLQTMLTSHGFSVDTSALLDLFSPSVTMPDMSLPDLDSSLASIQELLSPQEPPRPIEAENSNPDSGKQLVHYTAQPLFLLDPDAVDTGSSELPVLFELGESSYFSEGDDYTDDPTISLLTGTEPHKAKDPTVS

[6] = target: Low molecular weight phosphotyrosine protein phosphatase (Homo sapiens, UniProt P24666); format: functional; settings: read-out: IC50_Mean;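 note: Dose-response confirmation assay measuring inhibition of LMPTP enzyme activity by fluorescence intensity read-out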
Chain of Low molecular weight phosphotyrosine protein phosphatase (P24666 whole entry): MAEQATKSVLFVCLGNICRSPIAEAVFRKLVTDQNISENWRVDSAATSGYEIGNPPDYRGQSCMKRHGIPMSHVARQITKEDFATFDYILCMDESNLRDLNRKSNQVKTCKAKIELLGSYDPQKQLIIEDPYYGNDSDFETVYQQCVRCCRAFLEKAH

cells [7] = format: functional
[8] = target: T3, Corticotropin-releasing factor receptor 2/Corticotropin-releasing factor-binding protein (Homo sapiens, UniProt P24387+Q13324); test: activators of CRF receptor 2 with binding protein – uHTS hits, confirmation (AID 602473); format: functional; settings: read-out: EC50_Mean
T3 sequence (Q13324 whole entry): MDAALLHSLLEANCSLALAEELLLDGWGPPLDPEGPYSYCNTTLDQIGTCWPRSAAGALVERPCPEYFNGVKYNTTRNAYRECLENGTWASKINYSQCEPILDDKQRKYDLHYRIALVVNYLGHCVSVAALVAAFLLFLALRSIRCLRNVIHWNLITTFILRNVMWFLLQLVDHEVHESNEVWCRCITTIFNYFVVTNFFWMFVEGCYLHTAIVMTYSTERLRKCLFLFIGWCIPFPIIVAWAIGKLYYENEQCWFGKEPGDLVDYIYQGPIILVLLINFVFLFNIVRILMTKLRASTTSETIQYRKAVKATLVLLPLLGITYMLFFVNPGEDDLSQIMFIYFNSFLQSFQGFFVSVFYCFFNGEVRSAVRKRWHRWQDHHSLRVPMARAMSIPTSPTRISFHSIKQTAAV
T3 sequence (P24387 whole entry): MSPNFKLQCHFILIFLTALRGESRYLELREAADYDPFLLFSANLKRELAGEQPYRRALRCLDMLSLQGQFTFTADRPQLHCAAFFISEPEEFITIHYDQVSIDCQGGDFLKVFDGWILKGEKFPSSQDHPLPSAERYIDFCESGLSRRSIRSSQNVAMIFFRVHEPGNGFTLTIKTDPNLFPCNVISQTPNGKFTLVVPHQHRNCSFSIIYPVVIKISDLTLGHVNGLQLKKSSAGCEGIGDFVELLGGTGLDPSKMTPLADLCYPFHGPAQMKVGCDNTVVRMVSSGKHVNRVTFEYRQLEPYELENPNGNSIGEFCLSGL

[9] = target: UDP-galactopyranose mutase (Mycobacterium tuberculosis, UniProt P9WIQ1); test: Inhibitors of Mycobacterium tuberculosis UDP-galactopyranose mutase (UGM) enzyme Measured in Biochemical System Using Plate Reader - 2105-02_Inhibitor_Dose_CherryPick_Activity. [Related pubchem assays (depositor defined):AID504439]
Chain of UDP-galactopyranose mutase (P9WIQ1 whole entry): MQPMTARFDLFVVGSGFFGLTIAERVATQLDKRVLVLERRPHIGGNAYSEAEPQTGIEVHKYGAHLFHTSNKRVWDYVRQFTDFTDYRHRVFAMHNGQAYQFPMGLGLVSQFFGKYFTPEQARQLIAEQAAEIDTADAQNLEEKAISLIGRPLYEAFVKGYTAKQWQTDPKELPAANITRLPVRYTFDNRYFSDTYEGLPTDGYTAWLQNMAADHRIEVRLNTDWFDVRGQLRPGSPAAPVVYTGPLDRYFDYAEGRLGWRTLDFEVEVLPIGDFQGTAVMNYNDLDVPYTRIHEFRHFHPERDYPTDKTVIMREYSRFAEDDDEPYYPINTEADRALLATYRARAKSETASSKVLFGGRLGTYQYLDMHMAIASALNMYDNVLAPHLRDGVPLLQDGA

[10] = THP-1 cell cytotoxicity, dose response, cytotoxicity control for non-replicating M. tuberculosis project (AID 489025); format: functional
[11] = test system: Streptococcus sp. 'group A'; test: Streptococcus pyogenes SK(-)GAS viability under kanamycin – luminescence, BacTiterGlo, confirmation, counter-screen for streptokinase expression inhibitor project, dose response (AID 1900); format: functional, organism-based
Streptococcus = test: GAS UMAA2166 growth inhibition – luminescence, BacTiterGlo, counter-screen for streptokinase expression inhibitor project, dose response (AID 1915); format: functional, organism-based;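 note: potency for reduction of bacterial viability or growth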
H9c2 = test: cells; format: functional, cell-based; settings: Rattus norvegicus, H9c2, Myocardium;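 note: confirmatory concentration-response retest of ultra-high-throughput screening hits for modulation of myocardial damage; cell death induced by hydrogen peroxide oxidative stress; compound pretreatment for 60 min then peroxide exposure for 2 h; potency is for protecting the cells against peroxide damage rather than for killing them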
[12] = Luminescence Cell-Based Dose Response HTS to Identify Activators of Luciferase Translation or Activity in H4 […] Cells. [Related pubchem assays: 1829 (Project Summary), 1814 (Primary HTS)]; format: functional
H4 = test: Luminescence Cell-Based Dose Response HTS to Identify Activators of 5'UTR Stem-Loop Driven Prion Protein mRNA Translation in H4 Neuroglioblastoma Cells. [Related pubchem assays: 1829 (Project Summary), 1814 (Primary HTS)]; format: functional; settings: Homo sapiens
[13] = target: DNA (cytosine-5)-methyltransferase 1 (Homo sapiens, UniProt P26358); test: inhibition of DNA methylation by DNMT1 – biochemical, fluorescent molecular beacon, confirmation (AID 602386); format: functional
Chain of DNA (cytosine-5)-methyltransferase 1 (P26358 whole entry): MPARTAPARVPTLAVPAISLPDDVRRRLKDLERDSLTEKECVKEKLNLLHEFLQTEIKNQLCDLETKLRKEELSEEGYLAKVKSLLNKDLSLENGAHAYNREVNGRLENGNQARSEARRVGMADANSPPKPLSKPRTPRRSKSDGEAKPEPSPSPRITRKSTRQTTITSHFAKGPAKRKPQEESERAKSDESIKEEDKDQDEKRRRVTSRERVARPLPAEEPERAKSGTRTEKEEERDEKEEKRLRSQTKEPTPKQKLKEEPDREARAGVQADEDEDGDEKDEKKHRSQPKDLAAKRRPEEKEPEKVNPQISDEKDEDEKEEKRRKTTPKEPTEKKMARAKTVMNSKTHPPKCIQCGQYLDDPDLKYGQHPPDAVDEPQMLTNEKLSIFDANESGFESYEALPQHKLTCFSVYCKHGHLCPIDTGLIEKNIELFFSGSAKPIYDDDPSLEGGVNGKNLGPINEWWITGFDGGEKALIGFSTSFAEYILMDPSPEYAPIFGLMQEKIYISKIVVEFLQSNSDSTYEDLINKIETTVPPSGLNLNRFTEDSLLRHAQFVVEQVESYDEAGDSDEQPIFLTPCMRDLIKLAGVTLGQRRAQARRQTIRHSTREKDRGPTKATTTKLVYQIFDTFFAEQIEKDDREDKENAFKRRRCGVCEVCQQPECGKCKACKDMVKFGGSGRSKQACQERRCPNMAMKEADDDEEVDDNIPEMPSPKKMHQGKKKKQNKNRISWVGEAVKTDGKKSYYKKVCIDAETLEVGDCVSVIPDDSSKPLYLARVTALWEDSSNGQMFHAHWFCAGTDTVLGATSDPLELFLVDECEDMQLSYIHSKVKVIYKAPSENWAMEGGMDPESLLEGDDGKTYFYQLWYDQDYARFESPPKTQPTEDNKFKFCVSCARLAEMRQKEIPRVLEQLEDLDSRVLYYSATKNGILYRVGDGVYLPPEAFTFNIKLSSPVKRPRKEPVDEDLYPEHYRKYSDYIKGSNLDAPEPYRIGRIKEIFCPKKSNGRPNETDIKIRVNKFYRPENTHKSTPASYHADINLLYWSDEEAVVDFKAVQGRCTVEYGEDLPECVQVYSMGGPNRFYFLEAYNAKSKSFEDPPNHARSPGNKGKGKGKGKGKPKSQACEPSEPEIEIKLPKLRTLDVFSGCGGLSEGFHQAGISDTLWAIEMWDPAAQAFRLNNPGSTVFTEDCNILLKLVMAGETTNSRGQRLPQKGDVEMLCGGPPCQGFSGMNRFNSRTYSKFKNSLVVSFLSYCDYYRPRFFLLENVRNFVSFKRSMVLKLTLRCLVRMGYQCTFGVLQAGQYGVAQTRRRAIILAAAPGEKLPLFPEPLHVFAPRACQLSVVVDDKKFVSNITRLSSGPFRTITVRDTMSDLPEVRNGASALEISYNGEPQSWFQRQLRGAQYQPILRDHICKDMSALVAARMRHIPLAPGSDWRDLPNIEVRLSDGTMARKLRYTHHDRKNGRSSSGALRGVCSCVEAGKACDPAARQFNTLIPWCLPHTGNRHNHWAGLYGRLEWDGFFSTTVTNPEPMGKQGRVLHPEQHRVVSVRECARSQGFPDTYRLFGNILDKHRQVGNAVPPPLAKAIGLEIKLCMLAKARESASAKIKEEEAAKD

[14] = Trypanosoma cruzi growth suppression in host cells – NIH3T3 host cells, beta-gal luminescence, confirmation (AID 2044); format: functional, cell-based;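 note: intracellular parasites grown in NIH/3T3 mouse fibroblasts as host cells; luminescent beta-galactosidase reporter signal from transgenic T. cruzi replicating inside host cells; inhibitors lower the luminescence signal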
INS1 = test: INS-1E survival protection against cytokine death – cell-based, luminescence, retest, dose response (AID 449756); format: functional; settings: Rattus norvegicus;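 note: cell death triggered by IL-1 beta plus TNF-alpha plus IFN-gamma mixture; protective hits raise ATP signal compared with cytokine alone wells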
[15] = NIH3T3 cell viability loss – ATP luminescence, mouse fibroblasts, counter-screen, dose response (AID 2010); format: functional, cell-based;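 note: cells exposed to compound for about 90 hours before reading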
[16] = Counterscreen for activators of the function of SWI/SNF related, matrix associated, actin dependent regulator of chromatin, subfamily a, member 2 (SMARCA2, BRM): Luminescence-based cell-based high throughput dose response assay to identify non-selective compounds using the VP16 reporter assay.; format: functional
cells [17] = format: functional, cell-based
[18] = Luminescence Cell-Based Dose Confirmation HTS to Identify Activators of 5'UTR Stem-Loop Driven Alpha-Synuclein mRNA Translation in H4 Neuroglioblastoma Cells. [Related pubchem assays: 1829 (Project Summary), 1814 (Primary HTS)]; format: functional
[19] = target: T4, Short transient receptor potential channel 4 (Mus musculus, UniProt Q9QUQ5); test: block of DAMGO-driven TRPC4 calcium entry – cell-based, HEK293 TRPC4/mu-opioid, Fluo-4 calcium, dose response (AID 434942); format: functional;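 note: potency of inhibitors blocking the TRPC4 calcium response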
T4 sequence (Q9QUQ5 whole entry): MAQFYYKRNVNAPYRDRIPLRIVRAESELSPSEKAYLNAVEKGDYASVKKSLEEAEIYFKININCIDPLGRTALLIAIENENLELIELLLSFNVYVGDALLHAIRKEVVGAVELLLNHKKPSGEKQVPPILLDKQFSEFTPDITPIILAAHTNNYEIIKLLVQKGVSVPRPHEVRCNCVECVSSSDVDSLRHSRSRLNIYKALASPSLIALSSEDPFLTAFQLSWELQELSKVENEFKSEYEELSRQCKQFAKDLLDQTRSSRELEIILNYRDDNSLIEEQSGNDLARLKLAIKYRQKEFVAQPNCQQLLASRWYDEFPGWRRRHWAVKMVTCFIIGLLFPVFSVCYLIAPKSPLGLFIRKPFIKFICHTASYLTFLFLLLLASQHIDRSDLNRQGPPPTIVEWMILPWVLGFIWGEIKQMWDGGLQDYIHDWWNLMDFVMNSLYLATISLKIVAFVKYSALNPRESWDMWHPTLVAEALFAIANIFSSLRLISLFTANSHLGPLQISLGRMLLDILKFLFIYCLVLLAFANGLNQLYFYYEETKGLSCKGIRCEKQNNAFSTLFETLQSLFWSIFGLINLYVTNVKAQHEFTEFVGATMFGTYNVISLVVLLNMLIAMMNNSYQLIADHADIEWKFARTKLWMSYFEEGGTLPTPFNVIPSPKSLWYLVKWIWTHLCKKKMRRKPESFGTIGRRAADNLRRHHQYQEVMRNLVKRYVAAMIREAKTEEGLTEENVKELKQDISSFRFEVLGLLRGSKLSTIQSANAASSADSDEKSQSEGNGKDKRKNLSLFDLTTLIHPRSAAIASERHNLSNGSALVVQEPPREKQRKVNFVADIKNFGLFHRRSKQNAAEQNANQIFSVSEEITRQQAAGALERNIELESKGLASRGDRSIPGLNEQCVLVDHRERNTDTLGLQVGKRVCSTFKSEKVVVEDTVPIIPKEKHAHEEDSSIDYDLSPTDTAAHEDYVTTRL

cells [20] = format: functional, cell-based; remark: listed apart in the source
[21] = target: SWI/SNF-related matrix-associated actin-dependent regulator of chromatin subfamily A member 2 (Homo sapiens, UniProt P51531); test: Luminescence-based cell-based high throughput dose response assay to identify activators of the function of SWI/SNF related, matrix associated, actin dependent regulator of chromatin, subfamily a, member 2 (SMARCA2, BRM).; format: functional
Chain of SWI/SNF-related matrix-associated actin-dependent regulator of chromatin subfamily A member 2 (P51531 whole entry): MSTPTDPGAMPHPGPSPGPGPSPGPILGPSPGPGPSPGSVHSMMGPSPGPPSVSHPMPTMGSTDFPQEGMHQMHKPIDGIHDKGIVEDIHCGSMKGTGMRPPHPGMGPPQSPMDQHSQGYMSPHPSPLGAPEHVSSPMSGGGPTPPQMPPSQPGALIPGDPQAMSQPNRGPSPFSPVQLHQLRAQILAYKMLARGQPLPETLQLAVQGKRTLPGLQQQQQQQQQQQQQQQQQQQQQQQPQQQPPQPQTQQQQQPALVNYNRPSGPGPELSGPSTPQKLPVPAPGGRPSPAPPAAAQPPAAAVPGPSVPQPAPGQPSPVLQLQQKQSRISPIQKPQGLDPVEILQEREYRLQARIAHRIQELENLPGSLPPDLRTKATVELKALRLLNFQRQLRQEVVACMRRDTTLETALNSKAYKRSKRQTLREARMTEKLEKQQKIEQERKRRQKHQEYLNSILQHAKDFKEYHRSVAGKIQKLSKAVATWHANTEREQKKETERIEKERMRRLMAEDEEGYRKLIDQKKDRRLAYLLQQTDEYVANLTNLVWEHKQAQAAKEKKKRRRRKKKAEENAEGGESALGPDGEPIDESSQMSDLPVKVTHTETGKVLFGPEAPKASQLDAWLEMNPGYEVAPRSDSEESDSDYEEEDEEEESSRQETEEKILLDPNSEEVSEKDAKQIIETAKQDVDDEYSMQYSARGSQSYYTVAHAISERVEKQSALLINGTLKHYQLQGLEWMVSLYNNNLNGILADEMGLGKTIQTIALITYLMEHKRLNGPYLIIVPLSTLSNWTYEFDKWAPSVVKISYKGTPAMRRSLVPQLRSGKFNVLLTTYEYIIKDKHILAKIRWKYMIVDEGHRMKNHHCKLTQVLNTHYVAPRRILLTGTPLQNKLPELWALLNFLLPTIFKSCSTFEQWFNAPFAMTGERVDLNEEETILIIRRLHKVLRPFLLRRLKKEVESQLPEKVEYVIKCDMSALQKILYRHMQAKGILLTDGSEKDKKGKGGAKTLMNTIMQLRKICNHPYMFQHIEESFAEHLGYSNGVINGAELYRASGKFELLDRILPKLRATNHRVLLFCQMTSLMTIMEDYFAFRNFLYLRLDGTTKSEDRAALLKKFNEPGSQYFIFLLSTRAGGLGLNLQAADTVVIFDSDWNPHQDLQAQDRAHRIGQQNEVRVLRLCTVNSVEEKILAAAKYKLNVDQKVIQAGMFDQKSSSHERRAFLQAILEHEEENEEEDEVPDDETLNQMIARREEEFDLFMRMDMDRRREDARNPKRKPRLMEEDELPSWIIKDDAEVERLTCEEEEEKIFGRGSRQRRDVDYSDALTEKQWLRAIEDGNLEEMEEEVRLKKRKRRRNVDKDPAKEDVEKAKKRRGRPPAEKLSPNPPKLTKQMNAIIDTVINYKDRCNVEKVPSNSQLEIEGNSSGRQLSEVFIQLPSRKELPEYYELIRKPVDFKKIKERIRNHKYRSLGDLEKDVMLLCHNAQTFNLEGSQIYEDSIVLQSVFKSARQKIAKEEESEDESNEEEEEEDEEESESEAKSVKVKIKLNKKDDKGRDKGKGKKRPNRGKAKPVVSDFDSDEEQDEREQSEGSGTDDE

Nc1ccc2c(C(F)(F)F)cc(=O)oc2c1
IC50 (CHO): > 49.7 µM (inactive) | IC50 (Beta Lactamase): 4.77 µM (active)

COc1ccc(/C=C(\C#N)C(=O)Nc2cc(C)c(Cl)cc2OC)cc1O
IC50 (HEK293 [1]): 12.6 µM (inactive) | EC50 (Insulin-degrading enzyme [2]): > 54.7 µM (inactive) | EC50 (Insulin-degrading enzyme [3]): > 54.7 µM (inactive) | EC50 (HEK293 [4]): > 55.9 µM (inactive) | EC50 [5]: > 195 µM (not active)

CCn1cc(C(=O)O)c(=O)c2cc(F)c(N3CCN(C(=S)NC(=O)c4ccccc4)CC3)cc21
IC50 [6]: 15.4 µM (active) | IC50 (cells [7]): 42.6 µM (active)

O=C(NC1CCCCC1)c1cccc2c1C(=O)c1ccc(N3CCC(Cc4ccccc4)CC3)cc1S2(=O)=O
IC50 (CHO): > 49.7 µM (inactive) | EC50 [8]: 6.47 µM (active) | IC50 (Beta Lactamase): 3.87 µM (active) | AC50 [9]: 72.3 µM (active)

COCO/C=C(\NC(C)=O)c1ccccc1
IC50 (HEK293 [1]): > 89.3 µM (inactive) | EC50 (Insulin-degrading enzyme [2]): > 54.7 µM (inactive) | EC50 (Insulin-degrading enzyme [3]): > 54.7 µM (inactive) | EC50 (HEK293 [4]): > 56 µM (inactive)

O=c1c(O)c(-c2cccs2)oc2ccc(Cl)cc12
IC50 (HEK293 [1]): > 89.2 µM (inactive) | IC50 (cells [7]): 13.8 µM (active) | EC50 (Insulin-degrading enzyme [2]): > 54.7 µM (inactive) | EC50 (Insulin-degrading enzyme [3]): > 54.7 µM (inactive) | CC50 [10]: > 40 µM (active) | EC50 [11]: 2.11 µM (active) | EC50 (Streptococcus): 7.38 µM (active) | EC50 (HEK293 [4]): > 54.7 µM (inactive) | IC50 (H9c2): > 79 µM (inactive)

CCN(CC)CCn1c2ccccc2c2cnc(N)c(C#N)c21
EC50 [12]: 21 µM (active) | EC50 (H4): > 120 µM (not active) | IC50 [13]: > 99 µM (inactive) | EC50 [14]: 1.21 µM (active) | AC50 (INS1): 3.09 µM (active) | EC50 [15]: 9.47 µM (active) | EC50 [16]: > 91.2 µM (inactive) | EC50 (cells [17]): > 350 µM (not active) | EC50 [18]: 10.2 µM (active) | EC50 [19]: 4.73 µM (active) | EC50 (cells [20]): > 350 µM (not active) | EC50 [21]: > 3.38 µM (active)
